Test results: ChEMBL document CHEMBL6087427, “Discovery of novel cyclopentane carboxylic acids as potent and selective inhibitors of NaV1.7” (Bioorg Med Chem Lett, 2025)
Values belong to the compound of their own block, whether it stands above or below them.

Key:
[1] = target: T1, Sodium channel protein type 9 subunit alpha (Homo sapiens, UniProt Q15858); assay: Displacement of [3H]GX-545 from Nav1.7 VSD4 (unknown origin)
Target sequence in this assay (Q15858 whole entry): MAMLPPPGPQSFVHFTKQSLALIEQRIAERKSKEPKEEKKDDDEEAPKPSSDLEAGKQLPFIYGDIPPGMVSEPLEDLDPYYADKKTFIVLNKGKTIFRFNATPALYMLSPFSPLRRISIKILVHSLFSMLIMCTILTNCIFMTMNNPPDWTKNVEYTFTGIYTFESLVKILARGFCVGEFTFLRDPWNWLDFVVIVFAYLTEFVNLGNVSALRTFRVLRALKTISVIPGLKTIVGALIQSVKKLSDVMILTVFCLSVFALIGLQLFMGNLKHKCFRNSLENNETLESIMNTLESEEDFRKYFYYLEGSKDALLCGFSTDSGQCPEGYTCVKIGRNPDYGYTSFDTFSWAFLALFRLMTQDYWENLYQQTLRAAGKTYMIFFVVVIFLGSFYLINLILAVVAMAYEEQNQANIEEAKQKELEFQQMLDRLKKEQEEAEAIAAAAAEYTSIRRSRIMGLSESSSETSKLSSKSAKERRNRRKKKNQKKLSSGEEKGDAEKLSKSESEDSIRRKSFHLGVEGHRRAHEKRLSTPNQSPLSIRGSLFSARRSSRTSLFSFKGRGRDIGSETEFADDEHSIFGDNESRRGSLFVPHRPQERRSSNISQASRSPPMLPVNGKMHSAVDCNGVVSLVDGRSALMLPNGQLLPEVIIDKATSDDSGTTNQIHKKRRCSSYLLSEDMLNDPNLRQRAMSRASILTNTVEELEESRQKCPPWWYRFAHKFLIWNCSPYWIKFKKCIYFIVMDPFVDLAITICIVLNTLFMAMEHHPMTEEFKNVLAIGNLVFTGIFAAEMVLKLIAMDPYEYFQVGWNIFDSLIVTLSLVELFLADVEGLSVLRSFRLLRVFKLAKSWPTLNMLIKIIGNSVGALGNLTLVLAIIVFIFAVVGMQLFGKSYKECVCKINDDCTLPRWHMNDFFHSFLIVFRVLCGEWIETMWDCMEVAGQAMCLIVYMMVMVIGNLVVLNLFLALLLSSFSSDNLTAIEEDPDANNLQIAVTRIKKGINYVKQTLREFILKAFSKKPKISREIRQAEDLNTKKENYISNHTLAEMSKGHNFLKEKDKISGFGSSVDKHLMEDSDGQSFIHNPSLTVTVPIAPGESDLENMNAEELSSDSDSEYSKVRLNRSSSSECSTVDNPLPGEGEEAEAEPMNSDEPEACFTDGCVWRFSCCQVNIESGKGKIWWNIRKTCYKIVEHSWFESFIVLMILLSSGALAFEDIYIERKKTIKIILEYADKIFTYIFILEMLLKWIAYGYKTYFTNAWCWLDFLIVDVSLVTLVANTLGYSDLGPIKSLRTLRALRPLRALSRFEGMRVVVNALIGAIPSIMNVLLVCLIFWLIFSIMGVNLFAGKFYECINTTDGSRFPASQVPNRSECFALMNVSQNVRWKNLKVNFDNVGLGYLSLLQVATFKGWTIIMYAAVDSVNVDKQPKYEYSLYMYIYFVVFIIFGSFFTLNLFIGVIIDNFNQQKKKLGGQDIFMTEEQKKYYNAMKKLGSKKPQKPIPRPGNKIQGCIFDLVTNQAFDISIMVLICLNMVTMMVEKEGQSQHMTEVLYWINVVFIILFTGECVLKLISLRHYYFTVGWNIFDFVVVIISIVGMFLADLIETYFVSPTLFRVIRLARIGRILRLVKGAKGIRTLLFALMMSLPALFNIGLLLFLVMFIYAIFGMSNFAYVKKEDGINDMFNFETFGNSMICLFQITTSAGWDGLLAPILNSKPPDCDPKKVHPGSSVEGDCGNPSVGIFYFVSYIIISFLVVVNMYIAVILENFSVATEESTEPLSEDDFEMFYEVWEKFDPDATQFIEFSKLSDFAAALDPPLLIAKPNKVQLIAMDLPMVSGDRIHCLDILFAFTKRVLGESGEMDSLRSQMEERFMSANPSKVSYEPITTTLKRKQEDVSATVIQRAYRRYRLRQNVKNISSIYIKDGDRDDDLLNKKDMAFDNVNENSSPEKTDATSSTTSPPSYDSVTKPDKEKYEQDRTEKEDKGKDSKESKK

[2] = target: T1, Sodium channel protein type 9 subunit alpha; assay: Inhibition of human Nav1.7 assessed as fold shift in IC50 in presence of BSA by sodium flux assay
Target sequence in this assay (Q15858 whole entry, looked up): as the sequence (Q15858 whole entry) above

[3] = AUC in mouse at 3 mg/kg, po; assay type: ADME, organism-based; settings: in vivo, read-out: AUC
[4] = Metabolic stability in human liver microsomes assessed as hepatic clearance; assay type: ADME, Microsome
[5] = target: T1, Sodium channel protein type 9 subunit alpha; assay: Inhibition of human Nav1.7 by sodium flux assay
Target sequence in this assay (Q15858 whole entry): as above

[6] = Metabolic stability in mouse liver microsomes assessed as hepatic clearance; assay type: ADME, Microsome
[7] = target: T1, Sodium channel protein type 9 subunit alpha; assay: Inhibition of human Nav1.7 by patch clamp electrophysiology
Target sequence in this assay (Q15858 whole entry): as above

[8] = target: Sodium channel protein type 5 subunit alpha (Homo sapiens, UniProt Q14524); assay: Inhibition of human Nav1.5 by patch clamp electrophysiology
Sodium channel protein type 5 subunit alpha, sequence (Q14524 whole entry): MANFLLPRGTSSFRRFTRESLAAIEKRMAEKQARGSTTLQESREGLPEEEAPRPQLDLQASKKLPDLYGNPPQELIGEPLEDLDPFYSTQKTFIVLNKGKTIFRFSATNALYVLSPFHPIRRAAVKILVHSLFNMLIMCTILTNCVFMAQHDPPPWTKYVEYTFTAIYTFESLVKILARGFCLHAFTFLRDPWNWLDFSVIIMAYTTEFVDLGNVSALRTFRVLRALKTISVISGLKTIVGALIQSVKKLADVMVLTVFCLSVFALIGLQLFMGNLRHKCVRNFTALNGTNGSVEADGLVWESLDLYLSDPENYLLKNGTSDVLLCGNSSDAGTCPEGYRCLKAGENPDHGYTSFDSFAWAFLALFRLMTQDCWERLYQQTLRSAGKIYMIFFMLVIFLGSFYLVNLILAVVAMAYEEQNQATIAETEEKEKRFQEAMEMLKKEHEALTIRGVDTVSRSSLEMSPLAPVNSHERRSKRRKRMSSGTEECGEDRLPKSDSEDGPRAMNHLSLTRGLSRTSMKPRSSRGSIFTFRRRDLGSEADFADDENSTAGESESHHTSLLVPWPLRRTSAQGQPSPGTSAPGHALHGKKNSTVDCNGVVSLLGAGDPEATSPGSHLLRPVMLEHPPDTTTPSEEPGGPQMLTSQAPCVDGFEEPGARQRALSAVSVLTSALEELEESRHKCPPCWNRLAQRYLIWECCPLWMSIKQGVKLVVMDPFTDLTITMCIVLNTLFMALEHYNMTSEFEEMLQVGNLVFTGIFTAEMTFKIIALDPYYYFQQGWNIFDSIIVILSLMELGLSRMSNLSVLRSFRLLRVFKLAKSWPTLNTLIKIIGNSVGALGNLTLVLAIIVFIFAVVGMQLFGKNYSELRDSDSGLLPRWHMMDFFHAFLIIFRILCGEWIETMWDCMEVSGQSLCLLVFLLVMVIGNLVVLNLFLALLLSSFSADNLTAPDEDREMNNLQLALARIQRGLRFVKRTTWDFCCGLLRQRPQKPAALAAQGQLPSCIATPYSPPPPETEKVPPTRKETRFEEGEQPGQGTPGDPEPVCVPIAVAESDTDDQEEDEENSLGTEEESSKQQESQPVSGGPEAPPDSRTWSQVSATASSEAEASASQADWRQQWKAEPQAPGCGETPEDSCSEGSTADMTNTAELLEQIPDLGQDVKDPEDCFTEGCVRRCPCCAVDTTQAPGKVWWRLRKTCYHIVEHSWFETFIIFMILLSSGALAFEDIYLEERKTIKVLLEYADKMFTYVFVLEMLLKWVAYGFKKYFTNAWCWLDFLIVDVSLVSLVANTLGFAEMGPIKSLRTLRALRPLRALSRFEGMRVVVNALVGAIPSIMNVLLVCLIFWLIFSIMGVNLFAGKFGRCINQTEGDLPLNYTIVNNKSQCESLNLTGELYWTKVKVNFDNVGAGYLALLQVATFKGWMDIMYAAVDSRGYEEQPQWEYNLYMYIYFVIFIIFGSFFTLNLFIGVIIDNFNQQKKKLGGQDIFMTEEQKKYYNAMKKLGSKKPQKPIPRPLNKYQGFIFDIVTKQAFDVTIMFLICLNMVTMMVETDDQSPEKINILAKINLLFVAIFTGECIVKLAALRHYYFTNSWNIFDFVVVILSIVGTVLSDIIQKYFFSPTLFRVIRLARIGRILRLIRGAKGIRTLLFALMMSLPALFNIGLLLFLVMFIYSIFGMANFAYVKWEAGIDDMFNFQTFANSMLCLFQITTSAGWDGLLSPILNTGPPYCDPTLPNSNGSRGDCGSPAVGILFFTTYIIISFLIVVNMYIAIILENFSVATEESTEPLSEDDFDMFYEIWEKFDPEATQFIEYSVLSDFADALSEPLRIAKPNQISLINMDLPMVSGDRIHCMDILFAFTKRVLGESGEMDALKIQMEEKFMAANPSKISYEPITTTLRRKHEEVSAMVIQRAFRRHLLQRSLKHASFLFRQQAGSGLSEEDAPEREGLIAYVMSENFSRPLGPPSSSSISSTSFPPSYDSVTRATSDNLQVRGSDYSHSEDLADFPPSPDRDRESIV

Structure (SMILES): N#C[C@@H]1C[C@@H](C(=O)O)N(C(=O)c2cc(C3CC3)c(OCC34CC5CC(CC(C5)C3)C4)cc2F)C1
Ki [1]: 120 nM

Structure (SMILES): C[C@@]1(C(=O)O)CCCN1C(=O)c1cc(C2CC2)c(OCC23CC4CC(CC(C4)C2)C3)cc1F
Ki [1]: 100 nM

Structure (SMILES): O=C(c1cc(C2CC2)c(OCC23CC4CC(CC(C4)C2)C3)cc1F)C1CCC[C@H]1C(=O)O (stereo partly drawn)
fold change (FC) [2]: 1.5
AUC [3]: 0.53 µM·h
CLhep predicted [4]: 17 mL/min/kg
IC50 [5]: 250 nM
Ki [1]: 8.6 nM
CLhep predicted [6]: 61 mL/min/kg
IC50 [7]: 12 nM
IC50 [8]: 2600 nM

Structure (SMILES): O=C(O)[C@@H]1CCCN1C(=O)c1cc(C2CC2)c(OCC23CC4CC(CC(C4)C2)C3)cc1F
fold change (FC) [2]: 2.2
AUC [3]: 0.079 µM·h
CLhep predicted [4]: 11 mL/min/kg
IC50 [5]: 180 nM
Ki [1]: 20 nM
CLhep predicted [6]: 61 mL/min/kg
IC50 [7]: 33 nM

Structure (SMILES): CC1(C)CCN(C(=O)c2cc(C3CC3)c(OCC34CC5CC(CC(C5)C3)C4)cc2F)[C@@H]1C(=O)O
Ki [1]: 58 nM

More lines, main results first:

Ki [1]: 600 nM
Structure (SMILES): O=C(O)[C@@H]1[C@@H](O)CCN1C(=O)c1cc(C2CC2)c(OCC23CC4CC(CC(C4)C2)C3)cc1F

Ki [1]: 36 nM
Structure (SMILES): CO[C@@H]1CN(C(=O)c2cc(C3CC3)c(OCC34CC5CC(CC(C5)C3)C4)cc2F)[C@H](C(=O)O)[C@H]1C

Ki [1]: 160 nM
Structure (SMILES): O=C(O)[C@@H]1[C@H](O)CCN1C(=O)c1cc(C2CC2)c(OCC23CC4CC(CC(C4)C2)C3)cc1F

Ki [1]: 21 nM
Structure (SMILES): C[C@H]1[C@H](O)CN(C(=O)c2cc(C3CC3)c(OCC34CC5CC(CC(C5)C3)C4)cc2F)[C@@H]1C(=O)O

fold change (FC) [2]: 1
AUC [3]: 0.24 µM·h
CLhep predicted [4]: 11 mL/min/kg
IC50 [5]: 160 nM
Ki [1]: 1.8 nM
CLhep predicted [6]: 53 mL/min/kg
IC50 [7]: 10 nM
Structure (SMILES): C[C@@H]1[C@@H](C(=O)O)[C@H](C(=O)c2cc(C3CC3)c(OCC34CC5CC(CC(C5)C3)C4)cc2F)C[C@@H]1F
IC50 [8]: 6000 nM

Ki [1]: 49 nM
Structure (SMILES): C[C@H]1C[C@@H](C(=O)O)N(C(=O)c2cc(C3CC3)c(OCC34CC5CC(CC(C5)C3)C4)cc2F)C1

Ki [1]: 220 nM
Structure (SMILES): C[C@@H]1[C@H](F)CN(C(=O)c2cc(C3CC3)c(OCC34CC5CC(CC(C5)C3)C4)cc2F)[C@@H]1C(=O)O

Ki [1]: 190 nM
Structure (SMILES): O=C(O)[C@@H]1C2CC(C2)N1C(=O)c1cc(C2CC2)c(OCC23CC4CC(CC(C4)C2)C3)cc1F
